According to patent publication US9661854B2, “Molecules having pesticidal utility, and intermediates, compositions, and processes, related thereto” (Dow AgroSciences LLC, priority 2015, dated 2017):

Legend:
Type in all cases: in vivo
[1] = tested on: Yellow Fever Mosquito (Aedes aegypti, AEDSAE); settings: about 1 day-old larvae, master plate 4000 ppm solution diluted, room temperature, scored after 3 days
Procedure: Example B: Bioassays on Yellow Fever Mosquito (Aedes aegypti, AEDSAE (“YFM”)
Certain molecules disclosed in this document were tested against YFM using procedures described in the following paragraph. In the reporting of the results, the “YFM Rating Table” was used (See Table Section).
Master plates containing 400 μg of a molecule dissolved in 100 μL of dimethyl sulfoxide (DMSO) (equivalent to a 4000 ppm solution) are used. A master plate of assembled molecules contains 15 μL per well. To this plate, 135 μL of a 90:10 water/acetone mixture is added to each well. A robot (Biomek® NXP Laboratory Automation Workstation) is programmed to dispense 15 μL aspirations from the master plate into an empty 96-well shallow plate (“daughter” plate). There are 6 reps (“daughter” plates) created per master. The created “daughter” plates are then immediately infested with YFM larvae.
The day before plates are to be treated, mosquito eggs are placed in Millipore water containing liver powder to begin hatching (4 g into 400 mL). After the “daughter” plates are created using the robot, they are infested with 220 μL of the liver powder/larval mosquito mixture (about 1 day-old larvae). After plates are infested with mosquito larvae, a non-evaporative lid is used to cover the plate to reduce drying. Plates are held at room temperature for 3 days prior to grading. After 3 days, each well is observed and scored based on mortality. The results are indicated in the table entitled “Table ABC: Biological Results” (See Table Section).

[2] = tested on: Beet Armyworm (Spodoptera exigua, LAPHEG); test: Bioassay on Beet Armyworm (BAW), 128-well diet tray assay; settings: 168 h, 50 μg/cm^2 on artificial diet, second instar larvae, 25° C., five to seven days, average of eight wells, read-out: BAW % Control (or Mortality) rating
How it was run: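 Second-instar larvae, one to five per well, fed artificial diet surface-treated with 50 μg/cm^2 test molecule in 90:10 acetone-water, dried before infestation; eight wells per molecule. Held at 25 °C, 14:10 light-dark for five to seven days; percent mortality averaged over wells.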

[3] = tested on: Cabbage Looper (Trichoplusia ni, TRIPNI); test: Bioassay on Cabbage Looper (CL), 128-well diet tray assay; settings: 168 h, 50 μg/cm^2 on artificial diet, second instar larvae, 25° C., five to seven days, average of eight wells, read-out: CL % Control (or Mortality) rating
How it was run: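 Second-instar larvae (one to five per well) placed on artificial diet treated with 50 μg/cm^2 test molecule in 90:10 acetone-water, dried; eight wells per molecule. Held at 25° C., 14:10 light-dark, for five to seven days. Percent mortality scored per well and averaged over the eight wells.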

Structure (SMILES) | YFM % Control (or Mortality) rating [1] | mortality at 50 µg/cm2 [2] [%] | mortality at 50 µg/cm2 [3] [%]
Cc1ccc(OC(C)(C)C)c(N2C(=O)CS/C2=N\C(=O)Nc2ccc(CCc3ncn(-c4ccc(OC(F)(F)F)cc4)n3)cc2)c1 [F14, (Z)-1-(3-(2-(tert-Butoxy)-5-methylphenyl)-4-oxothiazolidin-2-ylidene)-3-(4-(2-(1-(4-(trifluoromethoxy)phenyl)-1H-1,2,4-triazol-3-yl)ethyl)phenyl)urea] | A (80-100) | 50 to 100 | 50 to 100
Cc1ccc(C(C)C)c(N2C(=O)CS/C2=N\C(=O)Nc2ccc(CC(C)c3ncn(-c4ccc(OC(F)(F)F)cc4)n3)cc2)c1 (stereo not drawn) [F15, (Z)-1-(3-(2-Isopropyl-5-methylphenyl)-4-oxothiazolidin-2-ylidene)-3-(4-(2-(1-(4-(trifluoromethoxy)phenyl)-1H-1,2,4-triazol-3-yl)propyl)phenyl)urea] | A (80-100) | 50 to 100 | 50 to 100
Cc1ccc(C(C)C)c(N2C(=O)CS/C2=N\C(=O)Nc2ccc(CCc3ncn(-c4ccc(OC(F)(F)F)cc4)n3)c(F)c2)c1 [F23, (Z)-1-(3-Fluoro-4-(2-(1-(4-(trifluoromethoxy)phenyl)-1H-1,2,4-triazol-3-yl)ethyl)phenyl)-3-(3-(2-isopropyl-5-methylphenyl)-4-oxothiazolidin-2-ylidene)urea] | A (80-100) | 50 to 100 | 50 to 100
CCCc1ccc(C)cc1N1C(=O)CS/C1=N\C(=O)Nc1ccc(CCc2ncn(-c3ccc(OC(F)(F)F)cc3)n2)cc1F [F26, (Z)-1-(2-Fluoro-4-(2-(1-(4-(trifluoromethoxy)phenyl)-1H-1,2,4-triazol-3-yl)ethyl)phenyl)-3-(3-(5-methyl-2-propylphenyl)-4-oxothiazolidin-2-ylidene)urea] | A (80-100) | 50 to 100 | 50 to 100
Cc1ccc(C(C)C)c(N2C(=O)CS/C2=N\C(=O)Nc2ccc(/C=C/c3ncn(-c4ccc(OC(F)(F)F)cc4)n3)cc2)c1 [F38, 1-((Z)-3-(2-isopropyl-5-methylphenyl)-4-oxothiazolidin-2-ylidene)-3-(4-((E)-2-(1-(4-(trifluoromethoxy)phenyl)-1H-1,2,4-triazol-3-yl)vinyl)phenyl)urea] | A (80-100) | 50 to 100 | 50 to 100
CCC(C)Oc1ccc(C)cc1N1C(=O)CS/C1=N\C(=O)Nc1ccc(/C=C/c2ncn(-c3ccc(OC(F)(F)F)cc3)n2)cc1F (stereo not drawn) [F60, 1-((Z)-3-(2-(sec-Butoxy)-5-methylphenyl)-4-oxothiazolidin-2-ylidene)-3-(2-fluoro-4-((E)-2-(1-(4-(trifluoromethoxy)phenyl)-1H-1,2,4-triazol-3-yl)vinyl)phenyl)urea] | A (80-100) | 50 to 100 | 50 to 100
CC(C)c1ccc(C(F)(F)F)cc1N1C(=O)CS/C1=N\C(=O)Nc1ccc(/C=C/c2ncn(-c3ccc(OC(F)(F)F)cc3)n2)cc1 [F65, 1-((Z)-3-(2-isopropyl-5-(trifluoromethyl)phenyl)-4-oxothiazolidin-2-ylidene)-3-(4-((E)-2-(1-(4-(trifluoromethoxy)phenyl)-1H-1,2,4-triazol-3-yl)vinyl)phenyl)urea] | – | 50 to 100 | 50 to 100
Cc1ccc(C2CC2(F)F)c(N2C(=O)CS/C2=N\C(=O)Nc2ccc(/C=C/c3ncn(-c4ccc(OC(F)(F)F)cc4)n3)cc2)c1 (stereo not drawn) [F66, 1-((Z)-3-(2-(2,2-Difluorocyclopropyl)-5-methylphenyl)-4-oxothiazolidin-2-ylidene)-3-(4-((E)-2-(1-(4-(trifluoromethoxy)phenyl)-1H-1,2,4-triazol-3-yl)vinyl)phenyl)urea] | – | 50 to 100 | 50 to 100
Cc1ccc(C2CC2(F)F)c(N2C(=O)CS/C2=N\C(=O)Nc2ccc(/C=C/c3ncn(-c4ccc(OC(F)(F)F)cc4)n3)cc2F)c1 (stereo not drawn) [F67, 1-((Z)-3-(2-(2,2-difluorocyclopropyl)-5-methylphenyl)-4-oxothiazolidin-2-ylidene)-3-(2-fluoro-4-((E)-2-(1-(4-(trifluoromethoxy)phenyl)-1H-1,2,4-triazol-3-yl)vinyl)phenyl)urea] | – | 50 to 100 | 50 to 100
COCc1ccc(C)cc1N1C(=O)CS/C1=N\C(=O)Nc1c(F)cc(/C=C/c2ncn(-c3ccc(OC(F)(F)F)cc3)n2)cc1F [F68, 1-(2,6-Difluoro-4-((E)-2-(1-(4-(trifluoromethoxy)phenyl)-1H-1,2,4-triazol-3-yl)vinyl)phenyl)-3-((Z)-3-(2-(methoxymethyl)-5-methylphenyl)-4-oxothiazolidin-2-ylidene)urea] | – | 50 to 100 | 50 to 100
Cc1ccc(C(C)C)c(N2C(=O)CS/C2=N\C(=O)Nc2ccc(/C=C/c3ncn(-c4ccc(OC(F)(F)F)cn4)n3)cc2)c1 [F69, 1-((Z)-3-(2-isopropyl-5-methylphenyl)-4-oxothiazolidin-2-ylidene)-3-(4-((E)-2-(1-(5-(trifluoromethoxy)pyridin-2-yl)-1H-1,2,4-triazol-3-yl)vinyl)phenyl)urea] | – | 50 to 100 | 50 to 100
Cc1ccc(C(C)C)c(N2C(=O)CS/C2=N\C(=O)Nc2ccc(/C=C/c3ncn(-c4ccc(OC(F)(F)F)cc4)n3)cn2)c1 [F70, 1-((Z)-3-(2-isopropyl-5-methylphenyl)-4-oxothiazolidin-2-ylidene)-3-(5-((E)-2-(1-(4-(trifluoromethoxy)phenyl)-1H-1,2,4-triazol-3-yl)vinyl)pyridin-2-yl)urea] | – | 50 to 100 | 50 to 100
Cc1ccc(C(C)C)c(N2C(=O)CS/C2=N\C(=O)Nc2ccc(/C=C/c3ncn(-c4ccc(OC(F)(F)F)cn4)n3)cn2)c1 [F71, 1-((Z)-3-(2-isopropyl-5-methylphenyl)-4-oxothiazolidin-2-ylidene)-3-(5-((E)-2-(1-(5-(trifluoromethoxy)pyridin-2-yl)-1H-1,2,4-triazol-3-yl)vinyl)pyridin-2-yl)urea] | – | 50 to 100 | 50 to 100
Cc1ccc(C(C)C)c(N2C(=O)CS/C2=N\C(=O)Nc2ccc(/C=C/c3ncn(-c4ncc(C(F)(F)F)cc4Cl)n3)cc2)c1 [F72, 1-(4-((E)-2-(1-(3-chloro-5-(trifluoromethyl)pyridin-2-yl)-1H-1,2,4-triazol-3-yl)vinyl)phenyl)-3-((Z)-3-(2-isopropyl-5-methylphenyl)-4-oxothiazolidin-2-ylidene)urea] | – | 50 to 100 | 50 to 100
Cc1ccc(C(C)C)c(N2C(=O)CS/C2=N\C(=O)Nc2ccc(C3CC3c3ncn(-c4ccc(OC(F)(F)F)cc4)n3)cc2)c1 (stereo not drawn) [F73, (Z)-1-(3-(2-Isopropyl-5-methylphenyl)-4-oxothiazolidin-2-ylidene)-3-(4-(2-(1-(4-(trifluoromethoxy)phenyl)-1H-1,2,4-triazol-3-yl)cyclopropyl)phenyl)urea] | – | 50 to 100 | 50 to 100
Cc1ccc(C(C)C)c(N2C(=O)CS/C2=N\C(=O)Nc2ccc(CCc3ncn(-c4ccc(OC(F)(F)F)cn4)n3)cc2)c1 [F74, (Z)-1-(3-(2-Isopropyl-5-methylphenyl)-4-oxothiazolidin-2-ylidene)-3-(4-(2-(1-(5-(trifluoromethoxy)pyridin-2-yl)-1H-1,2,4-triazol-3-yl)ethyl)phenyl)urea] | – | 50 to 100 | 50 to 100
O=C(/N=C1\SCC(=O)N1c1cccnc1)Nc1ccc(CCc2ncn(-c3ccc(OC(F)(F)F)cc3)n2)cc1 [F75, (Z)-1-(4-Oxo-3-(pyridin-3-yl)thiazolidin-2-ylidene)-3-(4-(2-(1-(4-(trifluoromethoxy)phenyl)-1H-1,2,4-triazol-3-yl)ethyl)phenyl)urea] | – | 50 to 100 | 50 to 100
CC(C)c1ccccc1N1C(=O)CS/C1=N\C(=O)Nc1ccc(CCc2ncn(-c3ccc(C(F)(F)F)cc3C#N)n2)cc1 [F76, (Z)-1-(4-(2-(1-(2-cyano-4-(trifluoromethyl)phenyl)-1H-1,2,4-triazol-3-yl)ethyl)phenyl)-3-(3-(2-isopropylphenyl)-4-oxothiazolidin-2-ylidene)urea] | A (80-100) | 50 to 100 | 50 to 100
O=C(/N=C1\SCC(=O)N1C1CCCCC1)Nc1ccc(/C=C/c2ncn(-c3ccc(OC(F)(F)F)cc3)n2)cc1F [F78, 1-((Z)-3-Cyclohexyl-4-oxothiazolidin-2-ylidene)-3-(2-fluoro-4-((E)-2-(1-(4-(trifluoromethoxy)phenyl)-1H-1,2,4-triazol-3-yl)vinyl)phenyl)urea] | – | 50 to 100 | 50 to 100
